Activity calls are given as the source filed them.
Legend:
[1] = target: T1, Heat shock factor protein 1 (Mus musculus, UniProt P38532); assay: inhibition of MG132-induced HSE-luciferase signal, confirmation, cell-based, NIH3T3, luminescence, dose retest (AID 2382); format: functional;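 note: NIH3T3 fibroblasts with HSF1-driven luciferase reporter stressed by proteasome inhibitor MG132; luminescence from HSF1-driven luciferase expression after 8 hours of MG132 stress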
T1 sequence (P38532 whole entry): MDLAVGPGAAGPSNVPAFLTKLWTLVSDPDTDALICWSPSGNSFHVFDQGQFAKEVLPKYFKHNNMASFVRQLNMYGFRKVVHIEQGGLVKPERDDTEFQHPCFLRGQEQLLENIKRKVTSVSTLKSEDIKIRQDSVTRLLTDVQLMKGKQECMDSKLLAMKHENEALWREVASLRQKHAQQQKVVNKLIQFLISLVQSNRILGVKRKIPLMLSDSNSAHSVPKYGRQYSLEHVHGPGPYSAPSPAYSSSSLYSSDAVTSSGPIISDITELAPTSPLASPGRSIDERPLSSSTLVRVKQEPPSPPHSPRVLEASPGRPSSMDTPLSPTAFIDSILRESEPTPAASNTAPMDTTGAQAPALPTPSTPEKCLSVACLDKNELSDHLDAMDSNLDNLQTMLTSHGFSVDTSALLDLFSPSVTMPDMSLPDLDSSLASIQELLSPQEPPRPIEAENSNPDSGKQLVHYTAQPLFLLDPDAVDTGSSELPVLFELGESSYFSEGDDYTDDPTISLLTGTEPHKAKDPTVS

Cytochrome P450 3A4 = Cytochrome P450 3A4 (Homo sapiens, UniProt P08684);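 note: CYP3A4 tested as one member of a cytochrome P450 panel screen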
[2] = inhibitors of SNCA 5'UTR-driven reporter translation, confirmation, H4 neuroglioma cells, luminescence (AID 1988); format: functional, cell-based
[3] = Luminescence Cell-Based Dose Response HTS to Identify Inhibitors of 5'UTR Stem-Loop Driven Prion Protein mRNA Translation in H4 Neuroglioblastoma Cells. [Related pubchem assays: 1827 (Project Summary), 1813 (Primary HTS)]; format: functional
[4] = inhibitors of firefly luciferase expression or activity, dose response, H4 neuroglioma cells, luminescence (AID 1990); format: functional, cell-based
[5] = cytotoxicity toward NIH3T3 fibroblasts, dose response, counter-screen, cell-based, ATP luminescence, mouse fibroblasts (AID 2010); format: functional;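 note: cells exposed to compound for about 90 hours before reading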
[6] = inhibitors of intracellular T. cruzi replication, confirmation, NIH3T3 host cells, beta-gal luminescence (AID 2044); format: functional, cell-based;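 note: intracellular parasites grown in NIH/3T3 mouse fibroblasts as host cells; luminescent beta-galactosidase reporter signal from transgenic T. cruzi replicating inside host cells; inhibitors lower the luminescence signal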
Streptococcus = assay: Group A Streptococcus viability loss, dose response, counter-screen for streptokinase expression inhibitor project, luminescence, BacTiterGlo (AID 1915); format: functional, organism-based;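 note: potency for reduction of bacterial viability or growth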
[7] = system: Streptococcus sp. 'group A'; assay: growth inhibition of control SK(-) GAS strain, dose response, counter-screen for streptokinase expression inhibitor project, luminescence, kanamycin, BacTiterGlo, confirmation (AID 1900); format: functional, organism-based
[8] = target: T1, Heat shock factor protein 1; assay: HSF1 potentiators in luciferase reporter cells, confirmation, cell-based, NIH3T3, luminescence, dose retest (AID 435004); format: functional;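 note: stress induced by proteasome inhibitor MG132 added 30 min after compound; luciferase reporter driven by HSF1 response element in NIH3T3 cells; actives raise luminescence as potentiators of the MG132 stress response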
Cytochrome P450 2C19 = Cytochrome P450 2C19 (Homo sapiens, UniProt P33261); assay: Cytochrome panel assay with activity outcomes. Panel member name: p450-cyp2c19 Compounds with AC50 equal or less than 10 uM are considered active; format: functional
Sequence of Cytochrome P450 2C19 (P33261 whole entry): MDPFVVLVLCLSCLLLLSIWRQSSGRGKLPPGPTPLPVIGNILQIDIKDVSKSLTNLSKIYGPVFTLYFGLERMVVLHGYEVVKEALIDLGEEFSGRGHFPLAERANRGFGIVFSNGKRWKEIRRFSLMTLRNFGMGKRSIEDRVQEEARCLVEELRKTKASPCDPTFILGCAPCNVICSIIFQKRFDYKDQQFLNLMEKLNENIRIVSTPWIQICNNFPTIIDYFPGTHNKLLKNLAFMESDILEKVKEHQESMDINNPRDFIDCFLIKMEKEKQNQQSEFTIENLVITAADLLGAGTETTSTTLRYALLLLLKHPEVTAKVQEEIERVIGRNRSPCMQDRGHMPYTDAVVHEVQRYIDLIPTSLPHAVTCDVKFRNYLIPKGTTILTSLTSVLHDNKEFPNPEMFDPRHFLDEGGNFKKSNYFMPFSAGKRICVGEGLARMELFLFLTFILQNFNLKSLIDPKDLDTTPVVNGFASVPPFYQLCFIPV

Sequence of Cytochrome P450 3A4 (P08684 whole entry): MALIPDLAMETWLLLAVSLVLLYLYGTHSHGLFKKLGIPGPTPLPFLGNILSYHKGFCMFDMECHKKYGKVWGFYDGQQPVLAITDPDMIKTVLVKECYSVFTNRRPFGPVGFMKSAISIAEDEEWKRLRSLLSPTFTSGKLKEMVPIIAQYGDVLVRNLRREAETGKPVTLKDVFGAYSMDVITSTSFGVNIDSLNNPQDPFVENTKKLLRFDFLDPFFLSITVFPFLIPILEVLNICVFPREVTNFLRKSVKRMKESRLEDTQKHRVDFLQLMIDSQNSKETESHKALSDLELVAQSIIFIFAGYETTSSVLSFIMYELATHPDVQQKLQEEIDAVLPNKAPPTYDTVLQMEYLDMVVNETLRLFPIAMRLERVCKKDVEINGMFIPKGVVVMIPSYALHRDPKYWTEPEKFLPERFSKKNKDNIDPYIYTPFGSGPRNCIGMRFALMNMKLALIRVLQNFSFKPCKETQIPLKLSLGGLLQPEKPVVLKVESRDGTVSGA

For CC(CCCC(C)(C)O)NC(=O)c1ccc2oc(CCc3ccccc3)nc2c1 (stereo not given), the EC50 [1] was > 195 µM (not active).

With O=C1[C@H]2[C@H]3[C@H](O)[C@H](O)C/C(=N/OC[C@@H](O)COCc4ccco4)[C@@H]3CC[C@@H]2C(=O)N1c1cccc(Oc2ccccc2)c1 the AC50 (Cytochrome P450 3A4) was 7.94 µM (inconclusive).

For CCOc1cc(OCC)cc(C(=O)O)c1, the EC50 [1] was > 195 µM (not active).

In the case of COC(=O)c1ccc(COc2cccc3c2CCN(Cc2cccc(C)c2)C3=O)o1, the EC50 [2] is reported as 107 µM (active), the EC50 [3] is reported as > 120 µM (not active) and the EC50 [4] is reported as > 120 µM (not active).

In the case of COc1cccc(-n2c(SCC(=O)Nc3sc4c(c3C(N)=O)CCC4)nc3ccccc3c2=O)c1, the EC50 [5] is reported as > 60 µM (not active) and the EC50 [6] is reported as 2.9 µM (active).

With Cc1cc(CN2CCN(CCC#N)CC2)c(O)c(C2(C)CCCCC2)c1 the EC50 [5] was > 60 µM (not active) and the EC50 [6] was 1.1 µM (active).

In the case of CSCC[C@H](NC(=O)CC(C)(C)C)c1nc2ccccc2[nH]1, the AC50 (Cytochrome P450 3A4) is reported as 15.8 µM (inconclusive).

For COc1cc(OC)c(OC)cc1/C=N/NC(=S)NCC1CCCO1 (stereo not given), the EC50 [1] was > 195 µM (not active).

For Cc1cc(-c2c(C)[nH]n(-c3ccc(Cl)cc3)c2=O)[nH]n1, the EC50 (Streptococcus) was > 150 µM (not active) and the EC50 [7] was 2.51 µM (active).

With N=c1sccn1CC(=O)Nc1cc(Cl)ccc1Oc1ccccc1 the EC50 [8] was > 260 µM (inactive).

For CC(=O)C1=C(O)C=C(c2ccco2)CC1c1ccco1 (stereo not given), the AC50 (Cytochrome P450 2C19; read-out: AC50) was 2.24 µM (inconclusive) and the AC50 (Cytochrome P450 3A4) was 20 µM (inconclusive).

In the case of CCOC(=O)CCCNC(=O)CCCNC(=O)C(c1ccccc1)c1ccccc1, the AC50 (Cytochrome P450 2C19; read-out: AC50) is reported as 14.1 µM (inconclusive) and the AC50 (Cytochrome P450 3A4) is reported as 8.91 µM (inconclusive).

In the case of CCOC(=O)c1ccc(-c2c(-c3cc(OC)c(OC)c(OC)c3)noc2C)cc1F, the EC50 [2] is reported as 1.43 µM (active), the EC50 [3] is reported as 11.4 µM (active) and the EC50 [4] is reported as 9.94 µM (inconclusive).

With Cc1ccc([N+](=O)[O-])c(OCCCN2CCC(Cc3ccccc3)CC2)c1 the EC50 [1] was > 195 µM (not active).

In the case of Cn1cccc1C(=O)N1CCC2(CCCN(C(=O)Nc3ccccc3)C2)CC1, the AC50 (Cytochrome P450 3A4) is reported as 31.6 µM (inconclusive).

For COc1ccc(C(=O)N2CCC3(CCCN(CC(C)C)C3)CC2)cc1, the AC50 (Cytochrome P450 3A4) was 25.1 µM (inconclusive).

For Cc1ccc(-c2nnc(N3CCN(C(=O)c4cccs4)CC3)c3ccccc23)cc1, the EC50 [2] was 22 µM (active), the EC50 [3] was > 120 µM (not active) and the EC50 [4] was > 120 µM (not active).

In the case of Oc1ccc(OCc2ccccc2)cc1 [MONOBENZONE], the AC50 (Cytochrome P450 2C19; read-out: AC50) is reported as 6.31 µM (inconclusive).

In the case of COC(=O)C1=CN(Cc2ccc(OC)c(OC)c2)C=C(C(=O)OC)C1c1cccc(F)c1, the EC50 [2] is reported as 65.7 µM (active), the EC50 [5] is reported as > 60 µM (not active) and the EC50 [3] is reported as > 120 µM (not active). The EC50 [4] was 15.1 µM (active) and the EC50 [6] was 0.156 µM (active).

For O=[N+]([O-])c1ccccc1/C=N/n1c(S)nnc1COc1ccccc1, the AC50 (Cytochrome P450 2C19; read-out: AC50) was 11.2 µM (inconclusive).

In the case of CCOC(=O)Cc1cnc(NC(=O)c2ccccc2)s1, the EC50 [1] is reported as > 195 µM (not active).

With O=C(Nc1nc(-c2ccccc2)cs1)C1CCCCN1S(=O)(=O)c1ccc(Cl)cc1 (stereo not given) the EC50 [5] was > 60 µM (not active) and the EC50 [6] was 2.22 µM (active).

For O=C(c1ccc(SCc2cccc(Br)c2)c([N+](=O)[O-])c1)N1CCN(c2ccccn2)CC1, the EC50 [5] was > 60 µM (not active) and the EC50 [6] was 2.08 µM (active).

In the case of CC(C)c1cccc2cc3c(nc12)-c1cccc(=O)n1C3, the AC50 (Cytochrome P450 2C19; read-out: AC50) is reported as 39.8 µM (inconclusive).

For C/C(=N\CCc1c(C)[nH]c2ccc(OCc3ccccc3)cc12)C1=C(O)CC(c2ccccc2)CC1=O (stereo not given), the EC50 [5] was > 60 µM (not active) and the EC50 [6] was 2.1 µM (active).

For Cc1cccc(C)c1NC(=O)c1cc2c(=O)c3ccccc3oc2nc1C(F)(F)F, the AC50 (Cytochrome P450 2C19) was “inconclusive” and the AC50 (Cytochrome P450 3A4) was 0.0501 µM (inconclusive).

For C=CCOc1ccc(/C=C/C(=O)OCC(=O)NCC2CCCCC2)cc1, the EC50 [1] was > 195 µM (not active).

For C/C(=N\Nc1nnc(-c2ccccc2)c(-c2ccccc2)n1)c1cccc([N+](=O)[O-])c1, the AC50 (Cytochrome P450 2C19; read-out: AC50) was 17.8 µM (inconclusive) and the AC50 (Cytochrome P450 3A4) was 35.5 µM (inconclusive).

For O=C(/C=C/c1ccccc1)NC(=S)N1CCSCC1, the EC50 [1] was > 195 µM (not active).

For COc1ccc(CN2CC(=O)N(c3ccc(C)c(C)c3)C2=S)cc1OC, the EC50 [2] was 20.4 µM (active), the EC50 [3] was > 120 µM (not active) and the EC50 [4] was 21.3 µM (active).

For COc1ccc(OC)c(C2CC(=O)Nc3[nH]nc(-c4ccccc4)c32)c1 (stereo not given), the EC50 [2] was > 120 µM (not active), the EC50 [3] was > 120 µM (not active) and the EC50 [4] was > 120 µM (not active).
